Data taken from article PMC5527305, “Prevention of Ophthalmia Neonatorum Caused by Neisseria gonorrhoeae Using a Fatty Acid-Based Formulation” (mBio, 2017).

How the values were obtained:
[1] = test system: N. gonorrhoeae strain NCCP11945 in coculture with human corneal epithelial cells; assay: Cell culture infection model, log reduction of N. gonorrhoeae on corneal epithelial cells; format: cell-based, Neisseria gonorrhoeae; conditions: for Killing of N. gonorrhoeae in coculture with corneal cells: 1 mM, added at time of infection or 90 min later, 3 h
Procedure: Because of its potency, resistance to precipitation in the presence of calcium, and nonirritant nature, monocaprin was chosen from the seven candidates to test in a cell culture model with a 2-fold dilution series from 1 mM to 0.125 mM. Bacteria were also challenged with this compound at two different time points, i.e., at the time of the inoculation and 90 min later. […] There was a slight difference in the level of efficacy when monocaprin was used at sub-MBC levels and added 90 min after bacterial inoculation in comparison to addition immediately after inoculation of the bacteria (Fig. 6). This was possibly due to monocaprin hindering attachment of the bacterial cells to the corneal cells when it was added at the time of infection.
Primary cornea epithelial cells (Life Technologies, Inc.) were grown in keratinocyte serum-free medium (Life Technologies, Inc.) at 37°C with 5% CO2 until 80% confluence was reached. Cells were treated with trypsin, washed, added to 24-well plates, and incubated for a further 24 h. The medium was replaced and approximately 10^7 CFU/ml P^+ and Opa^+ N. gonorrhoeae strain NCCP11945 added to reach a host-to-pathogen ratio (multiplicity of infection) of 1:10. Monocaprin (1 mM, 0.5 mM, 0.25 mM, or 0.125 mM) was added either at 0 min or at 90 min after seeding with N. gonorrhoeae. Controls included noninfected, noninfected treated (with 1 mM monocaprin), infection, and gentamicin controls. After 3 h, the cells were washed, treated with 1% saponin, and incubated for 10 min at 37°C. GC broth was added to each well, and log reductions were calculated as detailed above. Comparisons of the log reductions at different drug administration times at given concentrations were performed using an unpaired t test and GraphPad Prism (version 6.01).

[2] = test system: gonococcal cells (isolate NCCP 11945); assay: Log reduction in artificial tear fluid with or without calcium chloride; format: cell-based, Neisseria gonorrhoeae; conditions: calcium 1 mM; Fig. 2
Procedure: The antigonococcal properties of the seven selected fatty acids were tested in artificial tear fluid, which contained calcium chloride. The addition of 1 mM lauric acid, tridecanoic acid, or sodium dodecanoate gave no reduction in bacterial cell number after exposure, in contrast to the results seen when they were tested in culture medium (Fig. 2). […] This was most likely due to the negative effect of calcium on the aqueous solubility of these candidates.
Artificial tear fluid was made as described by Mirejovsky and others ([39]) with or without calcium chloride. […] As with the previous log reductions, 10^7 gonococcal cells (isolate NCCP 11945) were suspended in GC broth. The cell suspension was centrifuged to remove the culture medium, and the bacteria were resuspended in the tear fluid. This was then added to the concentrated organic acid candidates. The cells were then enumerated again after 2 min of exposure to estimate any reduction in cell number due to the exposure to the organic acid.

SMILES: CCCCCCCCCC(=O)OCC(O)CO (centres unmarked) [Monocaprin]
- Efficacy (log reduction) in cell culture model ([1]; 0.125 mM, both time points): completely ineffective
- Killing of N. gonorrhoeae in coculture with corneal cells [1]: killed all N. gonorrhoeae bacteria
- Killing of N. gonorrhoeae in coculture with corneal cells ([1]; listed as monocaprin): complete killing
- Bacterial log reduction, comparison of addition times ([1]; 0.25 and 0.5 mM, 0 min vs 90 min): more effective at 0 min
- Effect of calcium in artificial tear fluid on antimicrobial effect [2]: unaffected
